Test results published in patent US20060100431A1, “Biologically active compounds” (Amura Therapeutics Limited, priority 2002, published 2006).

Legend:
Format in all cases: biochemical
Wild-type cruzipain = Wild-type cruzipain (Trypanosoma cruzi, UniProt P25779); test: Trypanosoma cruzi cruzipain peptidase activity assay (Ki); settings: read-out: Ki, inhibitors of cruzain and cruzipains
Procedure, shortened: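 Native cruzipain from T. cruzi Dm28 epimastigotes, 2.5 nM, in 100 mM sodium phosphate pH 6.75 with 1 mM EDTA and 10 mM L-cysteine, 25 °C, DMSO <1%. Rates taken from continuous fluorogenic substrate read; Ki by regression assuming reversible pure-competitive inhibition.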

CPB2.8ΔCTE = target: T1, CPB2.8ΔCTE (Leishmania mexicana, UniProt P36400); test: Leishmania mexicana cysteine protease B (CPB) peptidase activity assay (Ki); settings: Ki, inhibitors of Leismania mexicana CPB protease
T1 construct: Wild-type recombinant CPB without the C-terminal extention (i.e. CPB2.8ΔCTE); Dr. Jeremy Mottram (Wellcome Centre for Molecular Parasitology, University of Glasgow)
T1 sequence (P36400 126-343, stated change not applied): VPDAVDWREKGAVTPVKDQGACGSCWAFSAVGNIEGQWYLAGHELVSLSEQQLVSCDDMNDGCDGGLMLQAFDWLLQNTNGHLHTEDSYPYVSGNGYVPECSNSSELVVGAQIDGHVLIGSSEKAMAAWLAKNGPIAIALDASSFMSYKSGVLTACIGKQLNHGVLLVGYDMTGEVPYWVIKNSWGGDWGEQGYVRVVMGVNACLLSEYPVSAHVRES
Procedure, shortened: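 Recombinant CPB2.8ΔCTE (0.25 nM) was assayed in 100 mM sodium acetate pH 5.5 with 1 mM EDTA, 200 mM NaCl and 10 mM DTT at 25 °C, DMSO <1%, enzyme added to start. Rates were taken from continuous fluorescence slopes; apparent Ki was fitted assuming reversible, pure-competitive inhibition.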

human cathepsin L = target: T2, human cathepsin L (Homo sapiens, UniProt P07711); test: Cathepsin L peptidase activity assay (Ki); settings: read-out: Ki, inhibitors of cathepsin L
T2 construct: purchased CN Biosciences
T2 sequence (P07711 114-333): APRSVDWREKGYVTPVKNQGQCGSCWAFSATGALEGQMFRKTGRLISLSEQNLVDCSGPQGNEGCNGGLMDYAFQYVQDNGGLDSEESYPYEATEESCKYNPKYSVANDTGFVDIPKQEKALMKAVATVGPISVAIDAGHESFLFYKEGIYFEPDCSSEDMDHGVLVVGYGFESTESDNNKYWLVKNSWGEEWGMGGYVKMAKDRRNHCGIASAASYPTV
Procedure, shortened: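 Human cathepsin L at 1 nM with Ac-Phe-Arg-AMC at its KM^app (~20 μM) in 10 mM bis-tris-propane pH 6.5, 1 mM EDTA, 5 mM 2-mercaptoethanol, 1 mM CaCl2, DMSO <1%, 25±1° C. Reaction enzyme-initiated; AMC fluorescence (ex 365/em 450 nm) monitored over time.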

Bovine cathepsin S = target: T3, Bovine cathepsin S (Bos taurus, UniProt P25326); test: Cathepsin S peptidase activity assay, bovine enzyme (Ki); settings: species of cathepsin S not given; read-out: Ki, inhibitors of cathepsin S
T3 construct: purchased CN Biosciences
T3 sequence (P25326 115-331): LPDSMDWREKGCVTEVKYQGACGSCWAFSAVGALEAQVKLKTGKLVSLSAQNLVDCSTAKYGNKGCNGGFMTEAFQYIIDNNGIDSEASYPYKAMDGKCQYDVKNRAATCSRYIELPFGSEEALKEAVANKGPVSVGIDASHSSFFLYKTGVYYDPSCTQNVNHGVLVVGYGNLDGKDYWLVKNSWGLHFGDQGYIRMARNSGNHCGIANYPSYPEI
Description: Unless otherwise stated, all general chemicals and biochemicals were purchased from either the Sigma Chemical Company, Poole, Dorset, U.K or from Fisher Scientific UK, Loughborough, Leicestershire, U.K. Absorbance assays were carried out in flat-bottomed 96-well plates (Spectra; Greiner Bio-One Ltd., Stonehouse, Gloucestershire, U.K.) using a SpectraMax PLUS384 plate reader (Molecular Devices, Crawley, U.K.). Fluorescence high throughput assays were carried out in either 384-well microtitre plates (Corning Costar 3705 plates, Fisher Scientific) or 96-well ‘U’ bottomed Microfluor W1 microtitre plates (Thermo Labsystems, Ashford, Middlesex, U.K.). Fluorescence assays were monitored using a SpectraMax Gemini fluorescence plate reader (Molecular Devices). For substrates employing either a 7-amino-4-methylcoumarin (AMC) or a 7-amino-4-trifluoromethylcoumarin (AFC) fluorophore, assays were monitored at an excitation wavelength of 365 nm and an emission wavelength of 450 nm and the fluorescence plate reader calibrated with AMC. For substrates employing a 3-amino-benzoyl (Abz) fluorophore, assays were monitored at an excitation wavelength of 310 nm and an emission wavelength of 445 nm; the fluorescence plate reader calibrated with 3-amino-benzamide (Fluka). Unless otherwise indicated, all the peptidase substrates were purchased from Bachem UK, St Helens, Merseyside, UK. Substrates utilizing fluorescence resonance energy transfer methodology (i.e. FRET-based substrates) were synthesized at Incenta Limited using published methods (Atherton & Sheppard, Solid Phase Peptide Synthesis, IRL Press, Oxford, U.K, 1989) and employed Abz (2-aminobenzoyl) as the fluorescence donor and 3-nitro-tyrosine [Tyr(NO2)] as the fluorescence quencher (Meldal, M. and Breddam, K., Anal. Biochem, 195, 141-147, 1991). Hydroxyethylpiperazine ethanesulfonate (HEPES), tris-hydroxylmethyl aminomethane (tris) base, bis-tris-propane and all the biological detergents (e.g. CHAPS, zwittergents, etc.) were purchased from CN Biosciences UK, Beeston, Nottinghamshire, U.K. Glycerol was purchased from Amersham Pharmacia Biotech, Little Chalfont, Buckinghamshire, U.K. Stock solutions of substrate or inhibitor were made up to 10 mM in 100% dimethylsulfoxide (DMSO) (Rathburns, Glasgow, U.K.) and diluted as appropriately required. In all cases the DMSO concentration in the assays was maintained at less than 1% (vol./vol.).
Assay protocols were based on literature precedent (Table 4; Barrett, A. J., Rawlings, N. D. and Woessner, J. F., 1998, Handbook of Proteolytic Enzymes, Academic Press, London and references therein) and modified as required to suit local assay protocols. Enzyme was added as required to initiate the reaction and the activity, as judged by the change in fluorescence upon conversion of substrate to product, was monitored over time. All assays were carried out at 25±1° C.
Bovine cathepsin S, human cathepsin L, human cathepsin H and human cathepsin B were obtained from CN Biosciences. Recombinant human cathepsin S, human cathepsin K and human cathepsin X were obtained from Dr. Boris Turk (Josef Stefan Institute, Ljubljana, Slovenia). Unless otherwise stated, all peptidase activity assays were carried out in 10 mM bis-tris-propane (BTP), pH 6.5 containing 1 mM EDTA, 5 mM 2-mercaptoethanol and 1 mM CaCl2. Human cathepsin H activity assays were carried out in 10 mM BTP pH 6.5, 142 mM NaCl2, 1 mM CaCl2, 1 mM EDTA, 1 mM DTT, 0.035 mM Zwittergent 3-16. Human cathepsin K assays were carried out in 100 mM sodium acetate; pH 5.5 containing 20 mM L-cysteine and 1 mM EDTA (Bossard, M. J., et. al., J. Biol. Chem., 21, 12517-12524, 1996). Human cathepsin X assays were carried out in 100 mM sodium acetate; pH 5.5 containing 20 mM L-cysteine; 0.05% (w/v) Brij 35 and 1 mM EDTA (Santamaria, I., et. al., J. Biol. Chem., 273, 16816-16823, 1998; Klemencic, J, et al., Eur. J. Biochem., 267, 5404-5412, 2000).

Measured: Ki

Sequence of Wild-type cruzipain (P25779 whole entry): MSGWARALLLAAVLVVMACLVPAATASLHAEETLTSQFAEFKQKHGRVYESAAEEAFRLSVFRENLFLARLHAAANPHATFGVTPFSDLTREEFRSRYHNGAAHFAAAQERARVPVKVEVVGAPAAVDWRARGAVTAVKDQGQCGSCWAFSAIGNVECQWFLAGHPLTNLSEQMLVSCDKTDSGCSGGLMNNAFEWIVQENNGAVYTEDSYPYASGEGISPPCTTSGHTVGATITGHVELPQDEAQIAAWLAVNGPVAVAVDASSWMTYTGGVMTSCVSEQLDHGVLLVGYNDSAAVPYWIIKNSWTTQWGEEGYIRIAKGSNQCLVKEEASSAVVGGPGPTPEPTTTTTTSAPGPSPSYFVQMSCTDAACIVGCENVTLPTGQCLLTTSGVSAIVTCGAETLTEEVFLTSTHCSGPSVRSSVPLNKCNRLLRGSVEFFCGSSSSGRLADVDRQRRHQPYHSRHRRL

Cc1c(C(=O)N[C@@H](CC(C)C)C(=O)N2CC[C@@H]3[C@H]2C(=O)CN3C(=O)c2cccnc2)oc2ccccc12 [Example 17, (3aR,6aS)-3-Methyl-benzofuran-2-carboxylic acid {(1S)-3-methyl-1-[6-oxo-4-(pyridine-3-carbonyl)-hexahydro-pyrrolo[3,2-b]pyrrole-1-carbonyl]-butyl}-amide]
< 5 µM: all assays above

CC(C)C[C@H](NC(=O)OCc1ccccc1)C(=O)N1CC(=O)[C@@H]2[C@H]1CCN2C(=O)[C@H](CC(C)C)NC(=O)c1ccc(N(C)C)cc1 [Example 37, (3aS,6aR)-((1S)-1-{4-[(2S)-2-(4-Dimethylamino-benzoylamino)-4-methyl-pentanoyl]-3-oxo-hexahydro-pyrrolo[3,2-b]pyrrole-1-carbonyl}-3-methyl-butyl)-carbamic acid benzyl ester]
< 5 µM: all assays above

COc1cccc(C(=O)N2CC(=O)[C@@H]3[C@H]2CCN3C(=O)[C@H](CC(C)C)NC(=O)c2ccc(N(C)C)cc2)c1 [Example 65, (3aR,6aS)-4-Dimethylamino-N-{(1S)-1-[4-(3-methoxy-benzoyl)-6-oxo-hexahydro-pyrrolo[3,2-b]pyrrole-1-carbonyl]-3-methyl-butyl}-benzamide]
< 5 µM: all assays above

CC(C)C[C@H](NC(=O)c1ccc(N2CCOCC2)cc1)C(=O)N1CC[C@@H]2[C@H]1C(=O)CN2C(=O)c1ccccc1 [Example 85, (3aR,6aS)-N-[(1S)-1-(4-Benzoyl-6-oxo-hexahydro-pyrrolo[3,2-b]pyrrole-1-carbonyl)-3-methyl-butyl]-4-morpholin-4-yl-benzamide]
< 5 µM: all assays above

CC(C)C[C@H](NC(=O)c1ccc2ncccc2c1)C(=O)N1CC[C@@H]2[C@H]1C(=O)CN2C(=O)c1ccccc1 [Example 86, (3aR,6aS)-Quinoline-6-carboxylic acid [(1S)-1-(4-benzoyl-6-oxo-hexahydro-pyrrolo[3,2-b]pyrrole-1-carbonyl)-3-methyl-butyl]-amide]
< 5 µM: all assays above

CC(C)C[C@H](NC(=O)c1ccc2cc[nH]c2c1)C(=O)N1CC[C@@H]2[C@H]1C(=O)CN2C(=O)c1ccccc1 [Example 88, (3aR,6aS)-1H-Indole-6-carboxylic acid [(1S)-1-(4-benzoyl-6-oxo-hexahydro-pyrrolo[3,2-b]pyrrole-1-carbonyl)-3-methyl-butyl]-amide]
< 5 µM: all assays above

CC(C)C[C@H](NC(=O)c1ccc2[nH]ccc2c1)C(=O)N1CC[C@@H]2[C@H]1C(=O)CN2C(=O)c1ccccc1 [Example 89, (3aR,6aS)-1H-Indole-5-carboxylic acid [(1S)-1-(4-benzoyl-6-oxo-hexahydro-pyrrolo[3,2-b]pyrrole-1-carbonyl)-3-methyl-butyl]-amide]
< 5 µM: all assays above

CC(C)C[C@H](NC(=O)c1cccc(CN)c1)C(=O)N1CC[C@@H]2[C@H]1C(=O)CN2C(=O)c1ccccc1 [Example 92, (3aR,6aS)-3-Aminomethyl-N-[(1S)-1-(4-benzoyl-6-oxo-hexahydro-pyrrolo[3,2-b]pyrrole-1-carbonyl)-3-methyl-butyl]-benzamide]
< 5 µM: all assays above

CC(C)C[C@H](NC(=O)c1ccc(CN)cc1)C(=O)N1CC[C@@H]2[C@H]1C(=O)CN2C(=O)c1ccccc1 [Example 93, (3aR,6aS)-4-Aminomethyl-N-[(1S)-1-(4-benzoyl-6-oxo-hexahydro-pyrrolo[3,2-b]pyrrole-1-carbonyl)-3-methyl-butyl]-benzamide]
< 5 µM: all assays above

CC(C)C[C@H](NC(=O)c1ccc(N(C)C)cc1)C(=O)N1CC[C@@H]2[C@H]1C(=O)CN2C(=O)c1ccc2[nH]ccc2c1 [Example 98, (3aR,6aS)-4-Dimethylamino-N-{(1S)-1-[4-(1H-indole-5-carbonyl)-6-oxo-hexahydro-pyrrolo[3,2-b]pyrrole-1-carbonyl]-3-methyl-butyl}-benzamide]
< 5 µM: all assays above

CC(C)C[C@H](NC(=O)c1ccc(N(C)C)cc1)C(=O)N1CC[C@@H]2[C@H]1C(=O)CN2C(=O)[C@H](C)NC(=O)OCc1ccccc1 [Example 145, (3aS,6aR)-((1S)-2-{4-[(2S)-2-(4-Dimethylamino-benzoylamino)-4-methyl-pentanoyl]-3-oxo-hexahydro-pyrrolo[3,2-b]pyrrole-1-yl}-1-methyl-2-oxo-ethyl)-carbamic acid benzyl ester]
< 5 µM: all assays above

CC(C)C[C@H](NC(=O)c1ccc(N(C)C)cc1)C(=O)N1CC[C@@H]2[C@H]1C(=O)CN2C(=O)[C@@H]1CCCN1C(=O)OCc1ccccc1 [Example 154, (3aS,6aR)-(2S)-2-{4-[(2S)-2-(4-Dimethylamino-benzoylamino)-4-methyl-pentanoyl]-3-oxo-hexahydro-pyrrolo[3,2-b]pyrrole-1-carbonyl}-pyrrolidine-1-carboxylic acid benzyl ester]
< 5 µM: all assays above

CC[C@H](NC(=O)OCc1ccccc1)C(=O)N1CC(=O)[C@@H]2[C@H]1CCN2C(=O)[C@H](CC(C)C)NC(=O)c1ccc(N(C)C)cc1 [Example 159, (3aS,6aR)-((1S)-1-{4-[(2S)-2-(4-Dimethylamino-benzoylamino)-4-methyl-pentanoyl]-3-oxo-hexahydro-pyrrolo[3,2-b]pyrrole-1-carbonyl}-propyl)-carbamic acid benzyl ester]
< 5 µM: all assays above
